Reference: patent US20190008757A1, “DERMATOLOGICAL OR COSMETIC COMPOSITIONS CONTAINING A POLYPHENOL?ENRICHED EXTRACT OF VITEX NEGUNDO” (Laboratoires Expanscience, priority 2016, published 2019)

Legend:
[1] = test system: human sensory neuron/old keratinocyte cocultures; test: Neurite length of sensory neurons in neuron/keratinocyte co-cultures; format: cell-based; settings: 50 ng/mL
Description: Sensory neurons are derived from hiPS cells obtained from human fibroblasts. hiPS cells were cocultured with keratinocytes […]. The co-cultures were treated with the Vitex negundo extract at various concentrations (0.003%, 0.001%, 0.0005%, 0.0001%, 0.00005%, 0.00001% (w/v)), with 0.1% monopropylene glycol (extraction solvent control) and with 50 ng/mL nerve growth factor (NGF) serving as positive reference for dendrite elongation.
After 6 days of co-culture, the cells were fixed with 2% paraformaldehyde solution and then labelled with an anti-β-tubulin antibody. Labelling was observed using a fluorescence microscope and 20 images were acquired per co-culture. The length of the sensory neuron projections was measured and normalised by the number of labelled cell bodies. All statistics were done using the t-test and the ANOVA test (*p<0.05; **p<0.01; ***p<0.001).

[2] = test system: Prostaglandin E2 (PGE2); test: Assay of PGE2 in keratinocytes treated with 10 μg/mL PMA; format: cell-based, human; settings: 0.1 μM; for PGE2 Mean / PGE2 Increase (%): 24 h pretreatment; for PGE2 Mean: then 10 μg/mL PMA overnight; for PGE2 Increase (%): versus PMA
Description: (§1) Release of the cytokines Interleukin-1 beta (IL1β) and Prostaglandin E2 (PGE2) was analysed. […] Inflammation was then induced by addition of 10 μg/mL PMA overnight. An assay of IL1β and PGE2 was then performed in the cell culture supernatants. In parallel, the number of biologically active cells was determined by a neutral red assay. The amount of cytokine measured for each condition was normalised to the number of living cells determined by the neutral red assay. The significance of the results was verified by a one-factor analysis of variance followed by Tukey's test (GraphPad PRISM software version 5.02, GraphPad Software, San Diego Calif. USA).

[3] = test system: Interleukin-1 beta (IL1β); test: Assay of IL1β in keratinocytes treated with 10 μg/mL PMA; format: cell-based, human; settings: 0.1 μM, 24 h pretreatment; for IL1Beta Mean: then 10 μg/mL PMA overnight; for IL1Beta Increase (%): versus PMA
Description: as §1

[4] = test system: Normal human keratinocytes; test: Production of reactive oxygen species (DCFH-DA) in keratinocytes treated with H2O2; format: cell-based; settings: for ROS Mean: 24 h preincubation and during 100 μM H2O2 20 min, normalised to living cells; for ROS Increase (%): versus 100 μM H2O2; for ROS production following H2O2 treatment (in words): antioxidant references, 10 μM quercetin or 500 μM vitamin C
Description: The antioxidant effect of the polyphenol-enriched extract of Vitex negundo is evaluated using the incorporation of DCFHDA (2′,7′-dichlorofluorescin diacetate) into keratinocytes in culture. This molecule is a nonfluorescent marker in an unoxidised state. Under oxidising conditions (in this case stress induced by hydrogen peroxide, H2O2), DCFHDA will be degraded to DCF, a molecule which will emit fluorescence. […] Normal human keratinocytes were preincubated for 24 hours in the presence of 0.0005%, 0.001% and 0.005% (w/v) concentrations of the polyphenol-enriched extract of Vitex negundo, and 0.016%, 0.03% and 0.16% monopropylene glycol (controls corresponding to the solvent concentrations contained in the concentrations of Vitex negundo extract studied), 10 μM quercetin or 500 μM vitamin C (the latter two molecules serving as antioxidant reference). The cells are then treated for 1 hour in the presence of 0.5 mM DCFH-DA. Oxidation is induced by addition of 100 μM H2O2 for 20 minutes. A second treatment with the tested products is performed simultaneously with H2O2 stress (at the same concentrations as the pretreatment). Lastly, a measurement of fluorescence density (DFU) corresponding to the amount of ROS is performed using a microplate reader. In parallel, the number of biologically active cells was determined by a neutral red assay. The amount of ROS (reactive oxygen species) measured for each condition was normalised to the number of living cells determined by the neutral red assay. The significance of the results was verified by a one-factor analysis of variance followed by Tukey's test (GraphPad PRISM software version 5.02, GraphPad Software, San Diego Calif. USA).

| Compound | PGE2 Mean [2] | PGE2 Increase (%) [2] [%] | IL1Beta Mean [3] | IL1Beta Increase (%) [3] [%] | ROS production following H2O2 treatment (in words) [4] | further results |
| --- | --- | --- | --- | --- | --- | --- |
| NGF: nerve growth factor (NGF) serving as positive reference for dendrite elongation | – | – | – | – | – | total neurite length and neurite length per cell (in words) [1]: significantly increased; Neurite length per cell ([1]; 6 days of co-culture, control cells 143 ± 16): 212 ± 23 (*) arbitrary units; Total neurite length ([1]; 6 days of co-culture, control cells 6865 ± 633): 10393 ± 1849 (**) arbitrary units |
| C[C@@H]1C[C@H]2[C@@H]3CCC4=CC(=O)C=C[C@]4(C)[C@@]3(F)[C@@H](O)C[C@]2(C)[C@@]1(O)C(=O)CO [Dexamethasone, dexamethasone] | 1339.332 (pg/mL)/OD neutral red | −43 | 0.120 (pg/mL)/OD neutral red | −34 | – | – |
| O=C1O[C@H]([C@@H](O)CO)C(O)=C1O [vitamin C] | – | – | – | – | significantly decreased | ROS Mean ([4]; 500 μM): 11940 fluorescence units; ROS Increase (%) ([4]; 500 μM): −91% |
| O=c1c(O)c(-c2ccc(O)c(O)c2)oc2cc(O)cc(O)c12 [quercetin] | – | – | – | – | significantly decreased | ROS Mean ([4]; 10 μmol/L): 24411 fluorescence units; ROS Increase (%) ([4]; 10 μmol/L): −82% |
| COc1ccc2c(c1)c(CC(=O)O)c(C)n2C(=O)c1ccc(Cl)cc1 [Indometacin, indomethacin] | 416.328 (pg/mL)/OD neutral red | −82 | 0.172 (pg/mL)/OD neutral red | −5 | – | release of PGE2 (in words) ([2]; pretreatment for 24 hours): significantly decreased |
